The values that follow come from publication doi:10.1101/2023.10.11.561987v1, “Resolving the pharmacological redox-sensitivity of SARS-CoV-2 PLpro in drug repurposing screening enabled identification of the competitive GRL-0617 binding site inhibitor CPI-169” (biorxiv, 2023).

In the experiment the target is T1, SARS-CoV-2 PLpro-NAB (Severe acute respiratory syndrome coronavirus 2, UniProt P0DTD1).
T1 construct: gene rep; nsp3 fragment with PLpro and NAB domains, cut from replicase polyprotein 1a/1ab; His tag removed by TEV; E. coli BL21(DE3), pET24b
Nature of the experiment: biochemical. It is filed as biochemical.

With `NC(Cc1cc(O)c(O)cc1O)C(=O)O` (racemic) [6-Hydroxy-DL-DOPA], the IC50 (usually the concentration at which inhibition is half-maximal) was above 20 µM. Take `Cc1nc2c(=O)n(C)c(=O)nc-2n(C)n1` [3-Methyl Toxoflavin]: the IC50 was 0.074 µM.
